Values of other authors as cited in patent US8367605B2, “Copolymer-1 improvements in compositions of copolymers” (Yeda Research and Development Co. Ltd., priority 1994, dated 2013).

How the values were obtained:
[1] = tested on: patients with the exacerbating-remitting form of multiple sclerosis; details: daily injections; N. Engl. J. Med. [1987]317:408
[2] = tested on: experimental autoimmune encephalomyelitis (EAE); details: Eur. J. Immunol. [1971]1:242; U.S. Pat. No. 3,849,550

Substance: copolymer-1
- disability status versus control patients [1]: smaller increases in their disability status
- exacerbations versus control patients [1]: fewer exacerbations
- effect on EAE [2]: suppress EAE
